Literature values in patent US20240050950A1, “GRADIENT-BASED MICROFLUIDIC CIRCUIT, DEVICE, AND METHOD FOR PERFORMING AN ASSAY” (priority 2020, published 2024).
Where a name gives a salt, the structure may show the parent alone. Read-outs that look alike come from different tables or passages of the source. Numbered stars: 1 amine (or outer) side, 2 acyl side, 3 side chain; on linkers, the order of the positions; unused ones are H or OH. Bridge positions count the residues as written; N and C are the ends. Square brackets hold non-standard residues; d marks the D form. Peptide text beside a SMILES is read from it. X1 = CC(C)CCCCCCCCC[C@H](CC(=O)[*:1])O[*:2]

Settings: cited from earlier work
[1] = Table 1, antimicrobial agents/drugs
[2] = Table 3, antifungal drugs and other molecules

SMILES: CNC(=O)c1cc(Oc2ccc(NC(=O)Nc3ccc(Cl)c(C(F)(F)F)c3)cc2)ccn1 [Nexavar (Sorafenib Tosylate), Sorafenib Tosylate]
- Molar volume (Table 2, anticancer drugs): 319.4 ± 3.0 cm^3

SMILES: O=C(Nc1ccc([N+](=O)[O-])cc1Cl)c1cc(Cl)ccc1O [Niclosamide]
- Molar volume [1]: 202.4 ± 3.0 cm^3

SMILES: CO[C@@H]1C[C@@H](C[C@H]2CC[C@H](C)[C@H]([C@@H](C)C(=O)O)O2)O[C@]2(O[C@](C)([C@H]3CC[C@@](C)([C@@H]4O[C@@H]([C@H]5O[C@@](O)(CO)[C@H](C)C[C@@H]5C)C[C@@H]4C)O3)C[C@H]2C)[C@@H]1C [Nigericin]
- Molar volume [1]: 607.9 ± 5.0 cm^3

SMILES: C[C@@H]([C@H](N)C(=O)N[C@H](C(=O)O)[C@H]1O[C@@H](n2ccc(=O)[nH]c2=O)[C@H](O)[C@@H]1O)[C@H](O)c1ccc(O)cn1 [Nikkomycin]
- Molar volume [1]: 300.9 ± 3.0 cm^3

SMILES: CC1(C)NC(=O)N(c2ccc([N+](=O)[O-])c(C(F)(F)F)c2)C1=O [Nilandron (Nilutamide), Nilutamide]
- Molar volume (Table 2, anticancer drugs): 216.7 ± 3.0 cm^3

SMILES: Cc1cn(-c2cc(NC(=O)c3ccc(C)c(Nc4nccc(-c5cccnc5)n4)c3)cc(C(F)(F)F)c2)cn1 [Nilotinib (Tasigna), Nilotinib]
- Molar volume (Table 2, anticancer drugs): 388.6 ± 7.0 cm^3

SMILES: C[C@@H]1C[C@H]2CC[C@H](O2)[C@H](C)C(=O)O[C@@H](C)C[C@@H]2CC[C@@H](O2)[C@@H](C)C(=O)O[C@H](C)C[C@H]2CC[C@H](O2)[C@H](C)C(=O)O[C@@H](C)C[C@@H]2CC[C@@H](O2)[C@@H](C)C(=O)O1 [Nonactin (Ammonium ionophore), Nonactin]
- Molar volume [1]: 707.9 ± 3.0 cm^3

SMILES: CO[C@@H]1[C@@H](OC(N)=O)[C@@H](O)[C@H](Oc2ccc3c(O)c(NC(=O)c4ccc(O)c(CC=C(C)C)c4)c(=O)oc3c2C)OC1(C)C [Novobiocin]
- Molar volume [1]: 430.9 ± 5.0 cm^3

SMILES: C[C@@H]1[C@H](O)[C@@H](C)/C=C/C=C/CC/C=C/C=C/C=C/C=C/C(O[C@H]2O[C@H](C)[C@@H](O)[C@H](N)[C@@H]2O)CC2O[C@](O)(CC(O)C(O)CCC(O)CC(O)CC(O)CC(=O)O[C@H]1C)CC(O)C2C(=O)O (some centres unmarked) [Nystatin (Fungicidin, Mycostatin), Nystatin]
- Molar volume [1]: 696.1 ± 5.0 cm^3

SMILES: C[C@@H]1Cc2c(Cl)cc(C(=O)N[C@@H](Cc3ccccc3)C(=O)O)c(O)c2C(=O)O1 [Ochratoxin A]
- Molar volume [1]: 283.2 ± 3.0 cm^3

SMILES: Cc1c(C(=O)Nc2ccc(N3C[C@@H](C)O[C@@H](C)C3)nc2)cccc1-c1ccc(OC(F)(F)F)cc1 [Odomzo (Sonidegib), Sonidegib]
- Molar volume (Table 2, anticancer drugs): 386.7 ± 3.0 cm^3

SMILES: CC[C@@H]1/C=C/C=C/C[C@H](C)[C@H](O)[C@](C)(O)C(=O)[C@H](C)[C@@H](O)[C@H](C)C(=O)[C@H](C)[C@@H](O)[C@H](C)/C=C/C(=O)O[C@H]2[C@@H](C)[C@@H](CC1)O[C@@]1(CC[C@@H](C)[C@@H](C[C@H](C)O)O1)[C@@H]2C [Oligomycin A]
- Molar volume [1]: 688.2 ± 5.0 cm^3
- Molar volume [2]: 688.2 ± 5.0 cm^3

SMILES: COC(=O)C[C@](O)(CCCC(C)(C)O)C(=O)O[C@@H]1C(OC)=C[C@]23CCCN2CCc2cc4c(cc2[C@H]13)OCO4 [Omacetaxine Mepesuccinate]
- Molar volume (Table 2, anticancer drugs): 408.4 ± 5.0 cm^3

SMILES: C=CC(=O)Nc1cc(Nc2nccc(-c3cn(C)c4ccccc34)n2)c(OC)cc1N(C)CCN(C)C [Osimertinib (Tagrisso), Osimertinib]
- Molar volume (Table 2, anticancer drugs): 418.4 ± 7.0 cm^3

SMILES: Cc1onc(-c2ccccc2)c1C(=O)N[C@@H]1C(=O)N2[C@@H]1SC(C)(C)[C@@H]2C(=O)O [Oxacillin]
- Molar volume [1]: 268.4 ± 5.0 cm^3

SMILES: CCn1cc(C(=O)O)c(=O)c2cc3c(cc21)OCO3 [Oxolinic acid]
- Molar volume [1]: 176.1 ± 3.0 cm^3

SMILES: N=C1Sc2ccccc2C2=NCCCN12 [PD 404, 182, PD 404,182]
- Molar volume [1]: 150.9 ± 7.0 cm^3

SMILES: COc1ccc(C[C@H](N)C(=O)N[C@H]2[C@@H](O)[C@H](n3cnc4c(N(C)C)ncnc43)O[C@@H]2CO)cc1 [PUROMYCIN]
- Molar volume [1]: 311.7 ± 7.0 cm^3

SMILES: O=C1C=C2C(=CCOC2O)O1 (centres unmarked) [Patulin]
- Molar volume [1]: 101.3 ± 5.0 cm^3

SMILES: N=C(N)c1ccc(OCCCCCOc2ccc(C(=N)N)cc2)cc1 [Pentamidine]
- Molar volume [1]: 281.4 ± 7.0 cm^3

SMILES: c1ccc2nc3ccccc3nc2c1 [Phenazine]
- Molar volume [1]: 144.1 ± 3.0 cm^3

SMILES: C[C@@H]1O[C@@H]1P(=O)(O)O [Phosphomycin (Fosfomycin), Phosphomycin]
- Molar volume [1]: 88.4 ± 5.0 cm^3

SMILES: CCn1cc(C(=O)O)c(=O)c2cnc(N3CCNCC3)nc21 [Pipemidic acid]
- Molar volume [1]: 219.6 ± 3.0 cm^3

SMILES: COc1cccc2c1C(=O)c1c(O)c3c(c(O)c1C2=O)C[C@@](O)(C(=O)CO)C[C@@H]3O[C@H]1C[C@H](N)[C@H](O[C@@H]2CCCCO2)[C@H](C)O1 [Pirarubicin (THP), Pirarubicin]
- Molar volume [1]: 413.3 ± 5.0 cm^3

SMILES: Nc1cccc2c1C(=O)N(C1CCC(=O)NC1=O)C2=O (centres unmarked) [Pomalidomide]
- Molar volume (Table 2, anticancer drugs): 173.9 ± 3.0 cm^3

SMILES: O=C(C1CCCCC1)N1CC(=O)N2CCc3ccccc3C2C1 (centres unmarked) [Praziquantel]
- Molar volume [1]: 254.2 ± 5.0 cm^3

SMILES: CCCc1cc(C(N)=S)ccn1 [Prothionamide]
- Molar volume [1]: 158.5 ± 3.0 cm^3

SMILES: NC(=O)c1cnccn1 [Pyrazinecarboxamide]
- Molar volume [1]: 87.7 ± 7.0 cm^3

SMILES: COc1ccc2nc3cc(Cl)ccc3c(Nc3cc(CN4CCCC4)c(O)c(CN4CCCC4)c3)c2n1 [Pyronaridine]
- Molar volume [1]: 381.8 ± 3.0 cm^3

SMILES: O=[N+]([O-])c1c(Cl)cccc1-c1c[nH]cc1Cl [Pyrrolnitrin]
- Molar volume [1]: 168.7 ± 3.0 cm^3

SMILES: C[C@@H]1C[C@H]2O[C@@H]2/C=C\C=C\C(=O)Cc2c(Cl)c(O)cc(O)c2C(=O)O1 [Radicicol]
- Molar volume [1]: 267.3 ± 3.0 cm^3

SMILES: CNC(=O)c1cc(Oc2ccc(NC(=O)Nc3ccc(Cl)c(C(F)(F)F)c3)c(F)c2)ccn1 [Regorafenib]
- Molar volume (Table 2, anticancer drugs): 323.6 ± 3.0 cm^3

SMILES: NC(=O)c1ncn([C@@H]2O[C@H](CO)[C@@H](O)[C@H]2O)n1 [Ribavirin]
- Molar volume [1]: 117.0 ± 7.0 cm^3

SMILES: NC[C@H]1O[C@H](O[C@H]2[C@H](O[C@@H]3O[C@H](CO)[C@@H](O)[C@H]3O)[C@@H](O)[C@H](N)C[C@@H]2N)[C@H](N)[C@@H](O)[C@@H]1O [Ribostamycin]
- Molar volume [1]: 283.6 ± 5.0 cm^3

SMILES: CO[C@H]1/C=C/O[C@@]2(C)Oc3c(C)c(O)c4c(c3C2=O)C2=NC3(CCN(CC(C)C)CC3)NC2=C(NC(=O)/C(C)=C\C=C\[C@H](C)[C@H](O)[C@@H](C)[C@@H](O)[C@@H](C)[C@H](OC(C)=O)[C@@H]1C)C4=O [Rifabutin]
- Molar volume [1]: 632.4 ± 7.0 cm^3

SMILES: CO[C@H]1/C=C/O[C@@]2(C)Oc3c(C)c(O)c4c(O)c(c(/C=N/N5CCN(C6CCCC6)CC5)c(O)c4c3C2=O)NC(=O)/C(C)=C\C=C\[C@H](C)[C@H](O)[C@@H](C)[C@@H](O)[C@@H](C)[C@H](OC(C)=O)[C@@H]1C [Rifapentine (DL 473), Rifapentine]
- Molar volume [1]: 648.0 ± 7.0 cm^3

SMILES: C[C@@H](OC[C@@]1(c2ccccc2)CC[C@]2(CCC(=O)N2)CN1)c1cc(C(F)(F)F)cc(C(F)(F)F)c1 [Rolapitant Hydrochloride]
- Molar volume (Table 2, anticancer drugs): 373.3 ± 5.0 cm^3

SMILES: CC[C@H]1OC(=O)[C@H](C)[C@@H](O[C@H]2C[C@@](C)(OC)[C@@H](O)[C@H](C)O2)[C@H](C)[C@@H](O[C@@H]2O[C@H](C)C[C@H](N(C)C)[C@H]2O)[C@](C)(O)C[C@@H](C)/C(=N\OCOCCOC)[C@H](C)[C@@H](O)[C@]1(C)O [Roxithromycin]
- Molar volume [1]: 666.3 ± 7.0 cm^3

SMILES: N#CC[C@H](C1CCCC1)n1cc(-c2ncnc3[nH]ccc23)cn1 [Ruxolitinib phosphate]
- Molar volume (Table 2, anticancer drugs): 218.6 ± 7.0 cm^3

SMILES: CC[C@@H](C(=O)[C@@H](C)[C@@H](O)[C@H](C)[C@@H]1O[C@@H]([C@@H](CC)C(=O)O)CC[C@@H]1C)[C@H]1O[C@]2(C=C[C@@H](O)[C@]3(CC[C@@](C)([C@H]4CC[C@](O)(CC)[C@H](C)O4)O3)O2)[C@H](C)C[C@@H]1C [Salinomycin]
- Molar volume [1]: 633.5 ± 5.0 cm^3

SMILES: C/C=C/C=C/C(=O)O [Sorbic acid]
- Molar volume [1]: 109.4 ± 3.0 cm^3

SMILES: CO[C@H]1[C@@H](O)[C@H](O)[C@H](OC[C@@]23C[C@@H]4[C@H](C)CC[C@H]4[C@@]4(C=O)CC2C=C(C(C)C)[C@@]34C(=O)O)O[C@@H]1C [Sordarin]
- Molar volume [1]: 381.1 ± 5.0 cm^3

SMILES: C[C@@H]1CN(c2c(F)c(N)c3c(=O)c(C(=O)O)cn(C4CC4)c3c2F)C[C@H](C)N1 [Sparfloxacin]
- Molar volume [1]: 273.2 ± 3.0 cm^3

SMILES: CN[C@@H]1[C@H](O)[C@H](NC)[C@H]2O[C@@]3(O)C(=O)C[C@@H](C)O[C@H]3O[C@@H]2[C@H]1O [Spectinomycin]
- Molar volume [1]: 231.6 ± 5.0 cm^3

SMILES: N=C(N)NCCCC[C@H](O)CC(=O)NC(O)C(=O)NCCCCNCCCN (some centres unmarked) [Spergualin]
- Molar volume [1]: 304.4 ± 7.0 cm^3

SMILES: CN[C@@H]1C[C@H]2O[C@@](C)([C@@H]1OC)n1c3ccccc3c3c4c(c5c6ccccc6n2c5c31)C(=O)NC4 [Staurosporine (Staurosporine), Staurosporine]
- Molar volume [1]: 298.7 ± 7.0 cm^3

SMILES: [H]/N=C(/N)N[C@H]1[C@H](O)[C@@H](O)[C@H](O[C@@H]2O[C@@H](C)[C@](O)(C=O)[C@H]2O[C@@H]2O[C@@H](CO)[C@H](O)[C@@H](O)[C@@H]2NC)[C@@H](N/C(N)=N\[H])[C@@H]1O [Streptomycin]
- Molar volume [1]: 293.4 ± 7.0 cm^3

SMILES: COC1=C(N)C(=O)c2nc(-c3nc(C(=O)O)c(C)c(-c4ccc(OC)c(OC)c4O)c3N)ccc2C1=O [Streptonigrin (Bruneomycin, Nigrin), Streptonigrin]
- Molar volume [1]: 322.2 ± 5.0 cm^3

SMILES: CC(C)CCCCCCCCC[C@@H]1CC(=O)N[C@@H](CCC(=O)O)C(=O)N[C@@H](CC(C)C)C(=O)N[C@H](CC(C)C)C(=O)N[C@@H](C(C)C)C(=O)N[C@@H](CC(=O)O)C(=O)N[C@H](CC(C)C)C(=O)N[C@@H](CC(C)C)C(=O)O1 [Surfactin] (EL[dL]VD[dL]L; linker N-C via X1)
- Molar volume [2]: 998.6 ± 3.0 cm^3

SMILES: Nc1nc2nc[nH]c2c(=S)[nH]1 [Tabloid (Thioguanine), Thioguanine]
- Molar volume (Table 2, anticancer drugs): 96.4 ± 3.0 cm^3

SMILES: CO[C@H]1C[C@@H]2CC[C@@H](C)[C@@](O)(O2)C(=O)C(=O)N2CCCC[C@H]2C(=O)O[C@H]([C@H](C)C[C@@H]2CC[C@@H](OC(=O)C(C)(CO)CO)[C@H](OC)C2)CC(=O)[C@H](C)/C=C(\C)[C@@H](O)[C@@H](OC)C(=O)[C@H](C)C[C@H](C)/C=C/C=C/C=C/1C [Temsirolimus (Torisel), Temsirolimus]
- Molar volume (Table 2, anticancer drugs): 853.1 ± 5.0 cm^3

SMILES: CN(C/C=C/C#CC(C)(C)C)Cc1cccc2ccccc12 [Terbinafine]
- Molar volume [2]: 289.1 cm^3
